The values that follow come from US6368785B1 (Global Hemostasis Institute MGR AB, priority 1997, dated 2002).

A short description of data set [1]: apparent dissociation constant of putative Ca*ligand complex from potentiometric Ca^2+ activity. The format is physicochemical. The following applies: 20 mM Hepes, pH 7.0 to 7.6, dilutions with 0.15 mM of NaCl, average of n determinations; for Kd: read-out: kd ± S.D. As to the method:
Bovine plasma deficient in vitamin K dependent coagulation factors and thromboplastin from rabbit brain were the corresponding components from PK-reagent GHI 129 detailed above. Ca^2+ activity and pH in plasma were determined potentiometrically with an ICA 2 (Radiometer, Copenhagen, Denmark) apparatus.
In order to identify compounds that could function as buffers for Ca^2+ at physiological levels, i.e. at about 1.3 mM of Ca^2+, water soluble compounds, either with reported dissociation constants in the range of 0.5 to 5 mM or otherwise appearing interesting, were experimentally investigated. Below, these compounds are referred to as Ca^2+ ligands or simply ligands. Experiments described below were performed to deduce the apparent dissociation constants under physiological like conditions and at ligand concentrations meaningful for Ca^2+ buffering.
Solution of 200 mM of ligand containing 20 mM of Hepes was adjusted to pH 7.4 and mixed with an equal volume of 100 mM of CaCl2 solution. These mixtures were diluted 1:2, 1:4, 1:8 and 1:16 with […]. […] From the experimentally determined Ca^2+ activity and the stoikiometric levels of ligand and Ca^2+, the apparent dissociation constant for a putative Ca*ligand complex was determined as the average of all available data.

For data set [2] the following is noted: cited from earlier work.
Data set [3] relates to prothrombin complex (coagulation factors VII, X and II). The data set can be described thus: coagulation time in prothrombin complex (PK) system with added citrate or iso-citrate. Format: biochemical. As to the method:
Activated partial thromboplastin time (APTT), prothrombin time (PT), prothrombin complex, (PK), assay, factor VIII and fibrin D-dimer were determined in compliance with manufacturers recommendations using the following reagents; PTT Automate, Diagnostica Stago, Asnieres-sur-Seine, France; Thromborel® S, Behring Diagnostics GmbH, Marburg, Germany; PK-reagent GHI 129, Global Hemostasis Institute MGR, Linköping, Sweden; and Coamatic® Factor VIII, Chromogenix, Mölndal, Sweden. The tests were performed on an Automated Coagulation Laboratory instrument, ACL, model 810 (Instrumentation Laboratory, Milan, Italy).
Coagulation analysis of blood and blood plasma are performed in many different ways. Most such analysis have the following in common. […] This Ca^2+ buffer capacity was determined in a system composed of sample, bovine plasma deficient in vitamin K dependent coagulation factors and rabbit brain thromboplastin. […] For each level of addition, the calcium ion buffering capacity of the analytical system was determined. The buffer capacity was determined at Ca^2+ activity in the range of 1 to 4 mM.
The assay response of the system described in Example 5 is investigated. […] The coagulation time is recorded. And after compacting of the coagulum by centrifugation for 3 minutes at 10,000×g, the Ca2+ activity is determined. […]

Data set [4] is described as follows: addition of CaCl2 solution to anti-coagulant solutions to reach physiological Ca^2+. The format is physicochemical. The conditions noted are these: solutions of the Ca^2+ binding substance plus CaCl2. The source says: This gave rise to the idea that these substances could perform as anticoagulants also at near physiological levels of Ca^2+ activity. […] This was possible with iso-citrate but not with citrate. […] The following therefore only describes experiments with iso-citrate.

The mark [5] stands for this setting: in 0.1 M NaClO4, read-out: published estimate.
Setting [6] is: in 0.1 M KNO3, read-out: published estimate.
Setting [7] is: prior art, at physiological conditions.

Structures can show the parent of a compound that is named as a salt. Where two headings read alike, the source gives them in different places.

For the molecule `O=C(O)CC(CC(=O)O)C(=O)O` [tricarballylate, tricarballylic acid], the Kd in data set [1] came to 22 ± 53 mM.
The same measure, in the same setting: as for `O=C(O)/C=C(\CC(=O)O)C(=O)O` [trans-aconitate, trans-aconitic acid], the figure is 29 ± 53 mM.
As to `CC(C)(C(=O)O)C(=O)O` [dimethylmalonate, dimethylmalonic acid], the Kd in data set [2] (setting [5]) is 30.2 mM.
`Nc1nc(N)c2[nH]cnc2n1` [2,6-diaminopurine]: the Kd in data set [1] was 50 ± 24 mM; in data set [2] (setting [6]), 1.6 mM.
Take `Nc1ncnc2nc[nH]c12` [adenine]: the Kd in data set [1] is 70 ± 40 mM; in data set [2] (setting [6]), 1.1 mM.
With `O=C(O)C(=O)O` [oxalate, oxalic acid], in data set [1], the “kd ± S.D.” value is “oxalate (precipitated)”. Moreover, the Kd in data set [2] (setting [6]) was 5 mM. For the same molecule, the “apparent dissociation constant of Ca^2+ complexes” value in data set [2] (setting [7]) is listed as “considerably tighter”.
With `O=C(O)CN(CCN(CC(=O)O)CC(=O)O)CC(=O)O` [EDTA], the “apparent dissociation constant of Ca^2+ complexes” value in data set [2] (setting [7]) is “considerably tighter”.
As for `O=C(O)c1ccccc1C(=O)O` [phthalate, phthalic acid], the Kd in data set [1] was 26 ± 73 mM; in data set [2] (in 0.1 M KCl, read-out: published estimate), 3.9 mM.
In the case of `O=C(O)CNCC(=O)O` [iminodiacetate], the Kd is 29 ± 12 mM in data set [1] and 8.1 mM in data set [2] (in 1 M KNO3, read-out: published estimate).
For `O=C(O)CC(O)(CC(=O)O)C(=O)O` [citrate, Tri-sodium citrate], the Kd in data set [1] is 0.5 ± 0.05 mM; in data set [2] (medium not given, read-out: published estimate) it was 0.58 mM; in data set [2] (prior art, at physiological conditions, read-out: apparent dissociation constant of Ca^2+ complexes) it was around 0.4 mM. Further, the “inhibition of coagulation (coagulation time) in PK system” value in data set [3] (5, 10 or 20 mM added, Ca^2+ activity 0.7 to 9 mM) is on record as “inhibit coagulation at all Ca^2+ activity levels”. Also, the “inhibitory effect on coagulation time per molar unit, citrate versus iso-citrate” value in data set [3] (Ca^2+ activity of 1.5, FIG. 8) is “about twice as inhibitory as iso-citrate per molar unit”. Also, in data set [4], the “making solutions with physiological levels of Ca^2+ by adding CaCl2 solution” value is reported as “formed precipitates”.
For `CC(C(=O)O)C(=O)O` [methylmalonate, methylmalonic acid], the Kd was 22 ± 3 mM in data set [1] and 22.4 mM in data set [2] (setting [5]).
